The source of these data is PubChem BioAssay (NCI).

Molecules are shown by their SMILES.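 Tested at 5 concentrations; 48 h exposure; 96-well plates; endpoints linearly interpolated, else capped at highest concentration. Here, GI50 denotes the concentration required for 50% inhibition of growth. TGI is the concentration that stops growth completely.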 Some results are limits rather than exact numbers.

Among the test systems are HOP-62 NSCLC; OVCAR-4 ovarian; COLO 205 colon; HCT-15 colon; HCC-2998 colon; SF-295 CNS; CAKI-1 renal; HOP-92 NSCLC; KM12 colon; SW-620 colon.
Test in all cases: inhibition of tumour cell growth, NCI panel, 48 h

Take `Nc1ncnc2c1ccn2-c1cccc(NC(=O)c2ccc(N3CCOCC3)c(C(F)(F)F)c2)c1`: the GI50 is 3.62 µM in the assay on HOP-62 NSCLC; 3.57 µM with OVCAR-4 ovarian; 3.79 µM with COLO 205 colon; 2.74 µM in the assay on HCT-15 colon; 4.6 µM with HCC-2998 colon; 2.44 µM in the assay with SF-295 CNS. Also, the GI50 in the assay with CAKI-1 renal was 2.69 µM; with HOP-92 NSCLC, 1.6 µM; in the assay on KM12 colon, 2.69 µM; with SW-620 colon, 4.23 µM. The TGI with HOP-62 NSCLC amounted to 15.5 µM; with OVCAR-4 ovarian, 12.5 µM; with COLO 205 colon it was 15.1 µM; with HCT-15 colon, 10.4 µM; with HCC-2998 colon it was 19.6 µM; with SF-295 CNS, 7.31 µM. In addition, the TGI in the assay on CAKI-1 renal was found to be 8.73 µM; in the assay on HOP-92 NSCLC, 5.82 µM; with KM12 colon, 10.4 µM; in the assay with SW-620 colon it was 17.8 µM.
For `C#CCNC(=O)CC[C@@H](C)[C@H]1CC[C@H]2[C@@H]3CC[C@@H]4CC(=O)CC[C@]4(C)[C@H]3CC[C@]12C`, the GI50 in the assay on HOP-62 NSCLC was 16.6 µM; in the assay on OVCAR-4 ovarian it was 14.9 µM; in the assay with COLO 205 colon, 15.7 µM; in the assay on HCT-15 colon, 12.1 µM; in the assay on HCC-2998 colon, 19.7 µM; in the assay on SF-295 CNS, 19.3 µM. Further, the GI50 was 12.8 µM in the assay on CAKI-1 renal, 2.54 µM in the assay with HOP-92 NSCLC, 18.8 µM with KM12 colon and 17.8 µM in the assay on SW-620 colon. Moreover, the TGI in the assay with HOP-62 NSCLC was 40.4 µM; in the assay on OVCAR-4 ovarian, 52.6 µM; with COLO 205 colon it was 32.5 µM; with HCT-15 colon it was 36.3 µM; with HCC-2998 colon, 54.1 µM; in the assay with SF-295 CNS, 49.4 µM. Besides, the TGI in the assay on CAKI-1 renal is 29.2 µM; with HOP-92 NSCLC, 10.3 µM; with KM12 colon it was 70.2 µM; in the assay on SW-620 colon it was 43.7 µM.
For `COc1cccc(/C=N/[N-]C(N)=O)c1[O-].[Co+2].[OH3+].c1ccncc1`, the TGI in the assay on HOP-62 NSCLC, with OVCAR-4 ovarian, with COLO 205 colon, in the assay on HCT-15 colon, in the assay with HCC-2998 colon and with SF-295 CNS was more than 100 µM in each case. In addition, the TGI with CAKI-1 renal, in the assay with HOP-92 NSCLC, in the assay with KM12 colon and with SW-620 colon was more than 100 µM in each case.
Turning to `O=C1OC(c2ccccc2Br)=N/C1=C/c1ccccc1`, the TGI in the assay on HOP-62 NSCLC was 49.4 µM; with OVCAR-4 ovarian, more than 100 µM; with HCT-15 colon, more than 100 µM; in the assay with HCC-2998 colon it was 39.4 µM; in the assay on SF-295 CNS it was more than 100 µM; with CAKI-1 renal, more than 100 µM. The TGI was 34 µM in the assay with KM12 colon and more than 100 µM with SW-620 colon.
Consider `c1cc(CSc2ncnc3nc[nH]c23)ccn1`, for which the TGI in the assay with HOP-62 NSCLC, with OVCAR-4 ovarian, in the assay with COLO 205 colon, in the assay on HCT-15 colon, in the assay on HCC-2998 colon and with SF-295 CNS was more than 100 µM in each case. Besides, the TGI in the assay with CAKI-1 renal, in the assay with HOP-92 NSCLC, with KM12 colon and in the assay on SW-620 colon was more than 100 µM throughout.
On to `CC1OC(CO)(n2cnc3c(N)ncnc32)C(O)C1O` (stereo not given), for which the TGI with HOP-62 NSCLC, in the assay with OVCAR-4 ovarian, in the assay on COLO 205 colon, in the assay on HCT-15 colon, in the assay with HCC-2998 colon and in the assay on SF-295 CNS was more than 100 µM throughout. Moreover, the TGI in the assay on CAKI-1 renal, in the assay with HOP-92 NSCLC, with KM12 colon and in the assay with SW-620 colon was more than 100 µM each time.
For the compound `COc1cc(N(CCCl)CCCl)ccc1/C=N\NC(=O)c1cccnc1`, the GI50 was 34.9 µM in the assay with HOP-62 NSCLC; 13.5 µM in the assay on COLO 205 colon; 27.2 µM with HCT-15 colon; 41.2 µM with HCC-2998 colon; 4.31 µM in the assay on SF-295 CNS; 9.25 µM in the assay on CAKI-1 renal. The GI50 is 14.1 µM in the assay with HOP-92 NSCLC, 33.6 µM in the assay with KM12 colon and 30.4 µM with SW-620 colon. Further, the TGI in the assay with HOP-62 NSCLC was more than 100 µM; with COLO 205 colon it was more than 100 µM; in the assay on HCT-15 colon it was more than 100 µM; with HCC-2998 colon it was more than 100 µM; in the assay on SF-295 CNS it was 35.7 µM; with CAKI-1 renal, 59.2 µM. Moreover, the TGI in the assay on HOP-92 NSCLC was 45.4 µM; with KM12 colon, more than 100 µM; in the assay on SW-620 colon, more than 100 µM.
Regarding `NC(CSCSCC(N)C(=O)O)C(=O)O` (stereo not given), the TGI with HOP-62 NSCLC, in the assay with OVCAR-4 ovarian, in the assay with COLO 205 colon, in the assay on HCT-15 colon, in the assay on HCC-2998 colon and in the assay with SF-295 CNS was more than 225 µM throughout. Further, the TGI with CAKI-1 renal was more than 225 µM; in the assay with HOP-92 NSCLC, more than 225 µM; in the assay with KM12 colon, more than 104 µM; in the assay on SW-620 colon, more than 225 µM.
`CCCCCCCCCCCCCCCCCCOc1ccccc1COP(=O)(O)OOCC[N+](C)(C)C`: the GI50 is 2.19 µM in the assay with HOP-62 NSCLC; 1.33 µM in the assay with OVCAR-4 ovarian; 1.04 µM with COLO 205 colon; 1.64 µM in the assay on HCT-15 colon; 0.787 µM in the assay on HCC-2998 colon; 1.23 µM with SF-295 CNS. For the same compound, the GI50 with CAKI-1 renal was 1.2 µM; with KM12 colon it was 1.01 µM; in the assay with SW-620 colon it was 1.43 µM. Besides, the TGI in the assay with HOP-62 NSCLC was 15.4 µM; in the assay on OVCAR-4 ovarian, 9.92 µM; in the assay with COLO 205 colon, 2.57 µM; in the assay on HCT-15 colon, 7.87 µM; in the assay on HCC-2998 colon, 1.6 µM; in the assay with SF-295 CNS, 4.32 µM. Further, the values for the TGI in the assay with CAKI-1 renal, in the assay on KM12 colon and in the assay with SW-620 colon were 4.14 µM, 2.12 µM and 5.36 µM, respectively.
With `O=c1oc2ccccc2n1P(=O)(Oc1ccc(Cl)cc1)n1c(=O)oc2ccccc21`, the TGI in the assay on HOP-62 NSCLC, in the assay on OVCAR-4 ovarian, in the assay on COLO 205 colon, in the assay on HCC-2998 colon, in the assay with SF-295 CNS and in the assay with CAKI-1 renal was more than 100 µM throughout. Further, the TGI in the assay on HOP-92 NSCLC, in the assay with KM12 colon and with SW-620 colon was more than 100 µM each time.
For the compound `Cc1cc(N=Cc2c(CO)cnc(C)c2O)c(N=Cc2c(CO)cnc(C)c2O)cc1C`, the TGI with HOP-62 NSCLC, in the assay with OVCAR-4 ovarian, in the assay on COLO 205 colon, in the assay with HCT-15 colon, with HCC-2998 colon and with SF-295 CNS was more than 100 µM in each case. In addition, the TGI in the assay on CAKI-1 renal, in the assay with KM12 colon and in the assay on SW-620 colon was more than 100 µM each time.
With `CCOC(=O)c1cc([N+](=O)[O-])c(Sc2ncnc3nc[nH]c23)c([N+](=O)[O-])c1`, the TGI in the assay with HOP-62 NSCLC was 24.8 µM; with COLO 205 colon, 3.08 µM; in the assay with HCT-15 colon, 6.57 µM; with HCC-2998 colon, 36.7 µM; in the assay on SF-295 CNS, more than 35.6 µM; in the assay with CAKI-1 renal, 12.7 µM. Besides, the TGI turned out to be 7.85 µM in the assay with HOP-92 NSCLC, 24.5 µM with KM12 colon and 5.25 µM in the assay on SW-620 colon.
In the case of `CON[N+]([O-])=NC(C)C`, the TGI in the assay with HOP-62 NSCLC, in the assay with OVCAR-4 ovarian, with COLO 205 colon, in the assay on HCT-15 colon, with HCC-2998 colon and in the assay with SF-295 CNS was more than 100 µM throughout. Further, the TGI in the assay with CAKI-1 renal, with HOP-92 NSCLC, in the assay with KM12 colon and with SW-620 colon was more than 100 µM in each case.
Regarding `O=C1CCC2COc3ccc(O)c1c32` (stereo not given), the TGI in the assay on OVCAR-4 ovarian, with COLO 205 colon, in the assay on HCT-15 colon, with SF-295 CNS, with CAKI-1 renal and in the assay on HOP-92 NSCLC was more than 100 µM throughout. The compound further gave a TGI in the assay with SW-620 colon of more than 100 µM.
`CC(C)(C)CI`: the TGI in the assay with COLO 205 colon is 47 µM; with HCT-15 colon, more than 100 µM; in the assay with HCC-2998 colon, 37.2 µM; in the assay on SF-295 CNS, 33.9 µM; in the assay with HOP-92 NSCLC it was 61.4 µM; in the assay on KM12 colon, 64.6 µM. In addition, the TGI with SW-620 colon was found to be 36.1 µM.
